# Several values for one entry are separate records, joined by “and”; a condition that tells them apart may be missing. Equal entries are not always repeated.
# Assays:
# Assay type in all cases: cell-based
# [1] = tested on: Salmonella typhimurium TA98; assay: Ames test (reverse mutation test), TA98
# Protocol: (§1) The solvent used herein was dimethyl sulfoxide (DMSO, 100 µL/plate).
# (§2) The mixtures were preincubated at 37° C. for 20 minutes while shaking. […] Two plates per treatment were used.
# [2] = tested on: Salmonella typhimurium TA1537; assay: Ames test (reverse mutation test), TA1537
# Protocol: as §1, §2
# [3] = tested on: Salmonella typhimurium TA100; assay: Ames test (reverse mutation test), TA100
# Protocol: as §1, §2
# [4] = tested on: Salmonella typhimurium TA1535; assay: Ames test (reverse mutation test), TA1535
# Protocol: as §1, §2
# [5] = tested on: Escherichia coli WP2uvrA; assay: Ames test (reverse mutation test), WP2uvrA; settings: for Number of revertant colonies: WP2uvrA
# Protocol: as §1, §2
# [6] = tested on: Salmonella typhimurium (TA98, TA1537, TA100, and TA1535) and Escherichia coli (WP2uvrA); assay: Ames test (reverse mutation test), overall conclusion over all tester strains; settings: all bacterial tester strains, with and/or without S9 mix
# Protocol: as §1, §2
# Details are explained as follows.
structure (smiles),measurement,setting,value
CC(C)(C)Oc1cc(F)cc(-c2cc(N)nn2C(F)(F)F)c1 [Metabolite 1],Number of revertant colonies,"[1]; TA98, +S9 mix, 2.3 µg/plate",35
same,Number of revertant colonies,"[1]; TA98, +S9 mix, 6.9 µg/plate",31
same,Number of revertant colonies,"[1]; TA98, +S9 mix, 21 µg/plate",35
same,Number of revertant colonies,"[1]; TA98, +S9 mix, 62 µg/plate",28
same,Number of revertant colonies,"[1]; TA98, +S9 mix, 185 µg/plate",16
same,Number of revertant colonies,"[1]; TA98, +S9 mix, 556 µg/plate",15
same,Number of revertant colonies,"[1]; TA98, +S9 mix, 1667 µg/plate",13
same,Number of revertant colonies,"[1]; TA98, +S9 mix, 5000 µg/plate",13
same,Number of revertant colonies,"[1]; TA98, -S9 mix, 2.3 µg/plate",14
same,Number of revertant colonies,"[1]; TA98, -S9 mix, 6.9 µg/plate",16
same,Number of revertant colonies,"[1]; TA98, -S9 mix, 21 µg/plate",14
same,Number of revertant colonies,"[1]; TA98, -S9 mix, 62 µg/plate",21
same,Number of revertant colonies,"[1]; TA98, -S9 mix, 185 µg/plate",9
same,Number of revertant colonies,"[1]; TA98, -S9 mix, 556 µg/plate",0
same,Number of revertant colonies,"[1]; TA98, -S9 mix, 1667 µg/plate",0
same,Number of revertant colonies,"[1]; TA98, -S9 mix, 5000 µg/plate",0
same,Number of revertant colonies,"[2]; TA1537, +S9 mix, 2.3 µg/plate",11
same,Number of revertant colonies,"[2]; TA1537, +S9 mix, 6.9 µg/plate",10
same,Number of revertant colonies,"[2]; TA1537, +S9 mix, 21 µg/plate",9
same,Number of revertant colonies,"[2]; TA1537, +S9 mix, 62 µg/plate",6
same,Number of revertant colonies,"[2]; TA1537, +S9 mix, 185 µg/plate",2
same,Number of revertant colonies,"[2]; TA1537, +S9 mix, 556 µg/plate",0
same,Number of revertant colonies,"[2]; TA1537, +S9 mix, 1667 µg/plate",0
same,Number of revertant colonies,"[2]; TA1537, +S9 mix, 5000 µg/plate",0
same,Number of revertant colonies,"[2]; TA1537, -S9 mix, 2.3 µg/plate",7
same,Number of revertant colonies,"[2]; TA1537, -S9 mix, 6.9 µg/plate",10
same,Number of revertant colonies,"[2]; TA1537, -S9 mix, 21 µg/plate",9
same,Number of revertant colonies,"[2]; TA1537, -S9 mix, 62 µg/plate",9
same,Number of revertant colonies,"[2]; TA1537, -S9 mix, 185 µg/plate",0
same,Number of revertant colonies,"[2]; TA1537, -S9 mix, 556 µg/plate",0
same,Number of revertant colonies,"[2]; TA1537, -S9 mix, 1667 µg/plate",0
same,Number of revertant colonies,"[2]; TA1537, -S9 mix, 5000 µg/plate",0
same,Number of revertant colonies,"[3]; TA100, +S9 mix, 2.3 µg/plate",120
same,Number of revertant colonies,"[3]; TA100, +S9 mix, 6.9 µg/plate",119
same,Number of revertant colonies,"[3]; TA100, +S9 mix, 21 µg/plate",117
same,Number of revertant colonies,"[3]; TA100, +S9 mix, 62 µg/plate",104
same,Number of revertant colonies,"[3]; TA100, +S9 mix, 185 µg/plate",78
same,Number of revertant colonies,"[3]; TA100, +S9 mix, 556 µg/plate",59
same,Number of revertant colonies,"[3]; TA100, +S9 mix, 1667 µg/plate",50
same,Number of revertant colonies,"[3]; TA100, +S9 mix, 5000 µg/plate",52
same,Number of revertant colonies,"[3]; TA100, -S9 mix, 2.3 µg/plate",99
same,Number of revertant colonies,"[3]; TA100, -S9 mix, 6.9 µg/plate",113
same,Number of revertant colonies,"[3]; TA100, -S9 mix, 21 µg/plate",124
same,Number of revertant colonies,"[3]; TA100, -S9 mix, 62 µg/plate",88
same,Number of revertant colonies,"[3]; TA100, -S9 mix, 185 µg/plate",38
same,Number of revertant colonies,"[3]; TA100, -S9 mix, 556 µg/plate",0
same,Number of revertant colonies,"[3]; TA100, -S9 mix, 1667 µg/plate",0
same,Number of revertant colonies,"[3]; TA100, -S9 mix, 5000 µg/plate",0
same,Number of revertant colonies,"[4]; TA1535, +S9 mix, 1667 µg/plate",4
same,Number of revertant colonies,"[4]; TA1535, -S9 mix, 62 µg/plate",8
same,Number of revertant colonies,"[4]; TA1535, -S9 mix, 185 µg/plate",0
same,Number of revertant colonies,"[4]; TA1535, -S9 mix, 556 µg/plate",0
same,Number of revertant colonies,"[4]; TA1535, -S9 mix, 1667 µg/plate",0
same,Number of revertant colonies,"[5]; +S9 mix, 2.3 µg/plate",31
same,Number of revertant colonies,"[5]; +S9 mix, 6.9 µg/plate",31
same,Number of revertant colonies,"[5]; +S9 mix, 12 µg/plate",28
same,Number of revertant colonies,"[5]; +S9 mix, 21 µg/plate",32 and 25
same,Number of revertant colonies,"[5]; +S9 mix, 36 µg/plate",34
same,Number of revertant colonies,"[5]; +S9 mix, 62 µg/plate",40 and 35
same,Number of revertant colonies,"[5]; +S9 mix, 185 µg/plate",16 and 9
same,Number of revertant colonies,"[5]; +S9 mix, 556 µg/plate",18
same,Number of revertant colonies,"[5]; +S9 mix, 1667 µg/plate",9
same,Number of revertant colonies,"[5]; +S9 mix, 5000 µg/plate",0
same,Number of revertant colonies,"[5]; -S9 mix, 2.3 µg/plate",32
same,Number of revertant colonies,"[5]; -S9 mix, 6.9 µg/plate",27
same,Number of revertant colonies,"[5]; -S9 mix, 21 µg/plate",31
same,Number of revertant colonies,"[5]; -S9 mix, 62 µg/plate",24
same,Number of revertant colonies,"[5]; -S9 mix, 185 µg/plate",15
same,Number of revertant colonies,"[5]; -S9 mix, 556 µg/plate",8
same,Number of revertant colonies,"[5]; -S9 mix, 1667 µg/plate",5
same,Number of revertant colonies,"[5]; -S9 mix, 5000 µg/plate",0
same,potential to induce reverse mutations,[6],did not show potential to induce reverse mutations
Cc1cccc(-n2nc(N)cc2-c2cccc(OC(F)(F)F)c2)c1 [Metabolite H],Number of revertant colonies TA98,"[1]; S9 Mix +, dose 2.3 µg/plate",56
same,Number of revertant colonies TA98,"[1]; S9 Mix +, dose 6.9 µg/plate",61
same,Number of revertant colonies TA98,"[1]; S9 Mix +, dose 21 µg/plate",152
same,Number of revertant colonies TA98,"[1]; S9 Mix +, dose 62 µg/plate",194
same,Number of revertant colonies TA98,"[1]; S9 Mix +, dose 185 µg/plate",85
same,Number of revertant colonies TA98,"[1]; S9 Mix +, dose 556 µg/plate",56
same,Number of revertant colonies TA98,"[1]; S9 Mix +, dose 1667 µg/plate",48
same,Number of revertant colonies TA98,"[1]; S9 Mix +, dose 5000 µg/plate",20
same,Number of revertant colonies TA98,"[1]; S9 Mix -, dose 2.3 µg/plate",18
same,Number of revertant colonies TA98,"[1]; S9 Mix -, dose 6.9 µg/plate",23
same,Number of revertant colonies TA98,"[1]; S9 Mix -, dose 21 µg/plate",18
same,Number of revertant colonies TA98,"[1]; S9 Mix -, dose 62 µg/plate",20
same,Number of revertant colonies TA98,"[1]; S9 Mix -, dose 185 µg/plate",22
same,Number of revertant colonies TA98,"[1]; S9 Mix -, dose 556 µg/plate",20
same,Number of revertant colonies TA98,"[1]; S9 Mix -, dose 1667 µg/plate",17
same,Number of revertant colonies TA98,"[1]; S9 Mix -, dose 5000 µg/plate",3
same,potential to induce reverse mutations,[1]; TA98 with S9 mix,showed potential to induce reverse mutations
same,Number of revertant colonies TA1537,"[2]; S9 Mix +, dose 2.3 µg/plate",11
same,Number of revertant colonies TA1537,"[2]; S9 Mix +, dose 6.9 µg/plate",15
same,Number of revertant colonies TA1537,"[2]; S9 Mix +, dose 21 µg/plate",26
same,Number of revertant colonies TA1537,"[2]; S9 Mix +, dose 62 µg/plate",35
same,Number of revertant colonies TA1537,"[2]; S9 Mix +, dose 185 µg/plate",18
same,Number of revertant colonies TA1537,"[2]; S9 Mix +, dose 556 µg/plate",10
same,Number of revertant colonies TA1537,"[2]; S9 Mix +, dose 1667 µg/plate",19
same,Number of revertant colonies TA1537,"[2]; S9 Mix +, dose 5000 µg/plate",15
same,Number of revertant colonies TA1537,"[2]; S9 Mix -, dose 2.3 µg/plate",9
same,Number of revertant colonies TA1537,"[2]; S9 Mix -, dose 6.9 µg/plate",9
same,Number of revertant colonies TA1537,"[2]; S9 Mix -, dose 21 µg/plate",11
same,Number of revertant colonies TA1537,"[2]; S9 Mix -, dose 62 µg/plate",9
same,Number of revertant colonies TA1537,"[2]; S9 Mix -, dose 185 µg/plate",4
same,Number of revertant colonies TA1537,"[2]; S9 Mix -, dose 556 µg/plate",6
same,Number of revertant colonies TA1537,"[2]; S9 Mix -, dose 1667 µg/plate",5
same,Number of revertant colonies TA1537,"[2]; S9 Mix -, dose 5000 µg/plate",2
same,potential to induce reverse mutations,[2]; TA1537 with S9 mix,showed potential to induce reverse mutations
same,Number of revertant colonies TA100,"[3]; S9 Mix +, dose 2.3 µg/plate",449
same,Number of revertant colonies TA100,"[3]; S9 Mix +, dose 6.9 µg/plate",1035
same,Number of revertant colonies TA100,"[3]; S9 Mix +, dose 21 µg/plate",2000
same,Number of revertant colonies TA100,"[3]; S9 Mix +, dose 62 µg/plate",2212
same,Number of revertant colonies TA100,"[3]; S9 Mix +, dose 185 µg/plate",722
same,Number of revertant colonies TA100,"[3]; S9 Mix +, dose 556 µg/plate",373
same,Number of revertant colonies TA100,"[3]; S9 Mix +, dose 1667 µg/plate",242
same,Number of revertant colonies TA100,"[3]; S9 Mix +, dose 5000 µg/plate",75
same,Number of revertant colonies TA100,"[3]; S9 Mix -, dose 2.3 µg/plate",130
same,Number of revertant colonies TA100,"[3]; S9 Mix -, dose 6.9 µg/plate",127
same,Number of revertant colonies TA100,"[3]; S9 Mix -, dose 21 µg/plate",136
same,Number of revertant colonies TA100,"[3]; S9 Mix -, dose 62 µg/plate",113
same,Number of revertant colonies TA100,"[3]; S9 Mix -, dose 185 µg/plate",103
same,Number of revertant colonies TA100,"[3]; S9 Mix -, dose 556 µg/plate",88
same,Number of revertant colonies TA100,"[3]; S9 Mix -, dose 1667 µg/plate",79
same,Number of revertant colonies TA100,"[3]; S9 Mix -, dose 5000 µg/plate",55
same,potential to induce reverse mutations,[3]; TA100 with S9 mix,showed potential to induce reverse mutations
same,Number of revertant colonies TA1535,"[4]; S9 Mix +, dose 1667 µg/plate",3
same,Number of revertant colonies TA1535,"[4]; S9 Mix -, dose 185 µg/plate",14
same,Number of revertant colonies TA1535,"[4]; S9 Mix -, dose 1667 µg/plate",6
same,Number of revertant colonies WP2uvrA,"[5]; S9 Mix +, dose 2.3 µg/plate",23
same,Number of revertant colonies WP2uvrA,"[5]; S9 Mix +, dose 6.9 µg/plate",25
same,Number of revertant colonies WP2uvrA,"[5]; S9 Mix +, dose 21 µg/plate",25
same,Number of revertant colonies WP2uvrA,"[5]; S9 Mix +, dose 62 µg/plate",35
same,Number of revertant colonies WP2uvrA,"[5]; S9 Mix +, dose 185 µg/plate",26
same,Number of revertant colonies WP2uvrA,"[5]; S9 Mix +, dose 556 µg/plate",20
same,Number of revertant colonies WP2uvrA,"[5]; S9 Mix +, dose 1667 µg/plate",19
same,Number of revertant colonies WP2uvrA,"[5]; S9 Mix +, dose 5000 µg/plate",9
same,Number of revertant colonies WP2uvrA,"[5]; S9 Mix -, dose 2.3 µg/plate",21
same,Number of revertant colonies WP2uvrA,"[5]; S9 Mix -, dose 6.9 µg/plate",18
same,Number of revertant colonies WP2uvrA,"[5]; S9 Mix -, dose 21 µg/plate",18
same,Number of revertant colonies WP2uvrA,"[5]; S9 Mix -, dose 62 µg/plate",20
same,Number of revertant colonies WP2uvrA,"[5]; S9 Mix -, dose 185 µg/plate",20
same,Number of revertant colonies WP2uvrA,"[5]; S9 Mix -, dose 556 µg/plate",17
same,Number of revertant colonies WP2uvrA,"[5]; S9 Mix -, dose 1667 µg/plate",13
same,Number of revertant colonies WP2uvrA,"[5]; S9 Mix -, dose 5000 µg/plate",8

# Source: US20230210831A1, “CHRONIC KIDNEY DISEASE TREATMENT OR PREVENTION METHOD” (Japan Tobacco Inc., priority 2019, published 2023)
